Test results as given in patent US20070207981A1, “MICRO-ENCAPSULATION OF VOLATILE COMPOUNDS INTO CYCLODEXTRINS: A NEW TECHNOLOGY TO REDUCE POST HARVEST LOSSES” (priority 2006, published 2007).

Columns and labels:
Penicillium sp. = assay: Growth of Penicillium sp. in vitro in the presence of pure volatiles; assay type: cell-based; settings: for Penicillium fungal development delayed: after 7 days at 23° C.
Protocol: (§1) In accordance with still another embodiment of the present invention, growth of Penicillium sp. and Aspergillus Niger was evaluated in vitro in the presence of hexanal, acetaldehyde and 2E-hexenal. The fungistatic and fungicidal effects of the pure volatiles were evaluated and presented below.

Aspergillus Niger = assay: Growth of Aspergillus niger in vitro in the presence of pure volatiles; assay type: cell-based; settings: 4 μL of volatile, after 7 days at room temperature
Protocol: as §1

[1] = oral, mammalian; cited from earlier work
Botrytis cinerea = assay: Growth of B. cinerea exposed to volatile vapour in closed jars at 23° C.; settings: 7 days at 23° C.
Description: (§2) Fourteen-day-old surface-plated cultures of Colletotricumn acutatum, Alternaria alternata and Botrytis cinerea in plastic Petri dishes (9 cm diameter), were filled aseptically with PDA medium (Potato Dextrose Agar) (Sigma-Aldrich Corp. (Saint Louis, Mo.)), and mixed with a few drops of sterile distilled water. Ten mL of each were collected inside plastic tubes which were shaken hard to dislodge spores from mycelia. The spores and cell suspensions were then filtered with sterile cheesecloth to remove debris such as mycelia and condensed-agar fragments and the aliquot was concentrated to 10^6 c.f.u./mL (spore*mL^−1), which were counted by the Neubauer improved method (Bright-Line Hemacytometer, Hausser Scientific, Horsham, Pa.).
(§3) Smaller Petri dishes (5.5 cm diameter) were also filled aseptically with PDA. Upon solidification of the agar medium, a drop of spores of each suspension was inserted as a drop in the centre of the well with a 100 μL Oxford Autoclavable Benchmate Pipette (Nichiryo, Japan). Finally, the Petri dishes were placed inside 1 L-glass jars which were closed with twist-off tops and stored at 23° C. These were used as the controls.
(§4) Other jars were modified for inserting and withdrawing of the volatiles obtained from the bioassays. For that, jars tops were modified by introducing a septum through which the volatile was inserted on a small piece of glass which was suspended 4 cm above the bottom. The same device was used to withdraw samples during storage. […]
(§5) Radial growth of the cultures in controls and treated samples were evaluated daily by measuring the surface area of the plate occupied by the colony during incubation or by measuring the length of the colony. […] Each assay was tested in triplicate and the area means calculated were analyzed statistically by analysis of variance. The delay in fungal growth was expressed as direct radial growth of cultures in cm^2 or cm as a percentage of colony growth by comparing samples exposed to the anti-fungal treatments with the controls. […]

Colletotrichum acutatum = assay: Growth of C. acutatum exposed to volatile vapour in closed jars at 23° C.; settings: 7 days at 23° C.; for concentration that completely inhibited / avoided C. acutatum growth: headspace concentration
Description: as §2, §3, §4, §5

Alternaria alternata = assay: Growth of A. alternata exposed to volatile vapour in closed jars at 23° C.; settings: 7 days at 23° C.; for concentration that completely inhibited / avoided A. alternata growth: headspace concentration
Description: as §2, §3, §4, §5

| Compound | Penicillium growth (Penicillium sp.; 1 μL of volatile, 1 week at 23° C.) | A. niger delay in growth (Aspergillus Niger) | ORL-MAM LD50 [1] | prevention of B. cinerea growth (Botrytis cinerea; any amount tested) | concentration that completely inhibited / avoided C. acutatum growth (Colletotrichum acutatum) | concentration that completely inhibited / avoided A. alternata growth (Alternaria alternata) | Penicillium fungal development delayed (Penicillium sp.; insertion of 4 μL of volatile) | Penicillium fungal development delayed (Penicillium sp.; insertion of 6 μL of volatile) | concentration that completely inhibited B. cinerea growth, equivalent ppm of volatile (Botrytis cinerea) | concentration that completely inhibited B. cinerea growth (Botrytis cinerea; headspace concentration) | concentration that completely inhibited C. acutatum growth, equivalent ppm of volatile (Colletotrichum acutatum) | concentration that completely inhibited A. alternata growth, equivalent ppm of volatile (Alternaria alternata) |
| --- | --- | --- | --- | --- | --- | --- | --- | --- | --- | --- | --- | --- |
| CCC/C=C/C=O [2E-hexenal] | not able to grow |  |  |  |  |  |  |  |  |  |  |  |
| CC=O [acetaldehyde] |  | over 66% | 250 mg/kg | able to prevent | 0.44 μg/mL air | 0.10 μg/mL air |  |  |  |  |  |  |
| CCCCCC=O [hexanal] |  |  |  |  | 0.91 μg/mL air | 1.91 μg/mL air | over 18% | > 74% | 4 ppm | 1.05 μg/mL air | 1.5 ppm | 7 ppm |
